From article PMC4235344, “A single-component multidrug transporter of the major facilitator superfamily is part of a network that protects E scherichia coli from bile salt stress” (Molecular Microbiology, 2014)

Molecular target: T1, MdtM (Escherichia coli, UniProt P39386)
T1 construct: full-length wild-type, pBAD/Myc-His A vector (pMdtM), homologously overexpressed in E. coli LMG194, purified in DDM
Test: intrinsic Trp fluorescence quenching
Format: binding

T1 sequence (P39386 whole entry): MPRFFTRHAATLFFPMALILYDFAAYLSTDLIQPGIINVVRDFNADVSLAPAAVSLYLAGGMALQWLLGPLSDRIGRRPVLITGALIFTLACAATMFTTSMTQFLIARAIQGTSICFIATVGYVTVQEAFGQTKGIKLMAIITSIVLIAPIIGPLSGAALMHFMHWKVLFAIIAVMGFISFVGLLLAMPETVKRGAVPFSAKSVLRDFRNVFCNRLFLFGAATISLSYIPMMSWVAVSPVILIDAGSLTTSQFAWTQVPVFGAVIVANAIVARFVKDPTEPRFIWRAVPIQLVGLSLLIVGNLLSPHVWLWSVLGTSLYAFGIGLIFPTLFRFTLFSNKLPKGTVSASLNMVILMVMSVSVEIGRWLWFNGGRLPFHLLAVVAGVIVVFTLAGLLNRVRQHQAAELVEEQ

Compound	Kd [µM]
C[C@H](CCC(=O)O)[C@H]1CC[C@H]2[C@@H]3[C@H](O)C[C@@H]4C[C@H](O)CC[C@]4(C)[C@H]3C[C@H](O)[C@]12C [cholate]	24 ± 6
C[C@H](CCC(=O)O)[C@H]1CC[C@H]2[C@@H]3CC[C@@H]4C[C@H](O)CC[C@]4(C)[C@H]3C[C@H](O)[C@]12C [deoxycholate]	176 ± 20
